US5525627A, “Esters of acyl carnitines with long-chain aliphatic alcohols and pharmaceutical compositions containing same having antimycotic activity” (Sigma-Tau Industrie Farmaceutiche Riunite S.p.A., priority 1992, dated 1996)

Key:
Candida albicans (A 54) = test: MIC for yeast and yeast-like strains; type: cell-based; conditions: 48 hours, 35° C., read-out: Minimal Inhibitory Concentration (MIC)
Procedure: (§1) The following strains were used (the number of strains is in brackets): Candida (13); Criptococcus (2); Saccharormyces (1); Torulopsis (1).
(§2) Yeast Nitrogen Base supplemented with 0.15% asparagine and 1.0% glucose (as carbon source) was the medium utilized in the assays.
(§3) This medium was buffered with 0.165 M 2-(N-morpholino) propane sulfonic acid (MOPS), a non-chelating buffer. […]
(§4) The inoculum was prepared from an overnight broth culture (a 48-hour culture only for Cryptococcus) in Sabouraud broth and appropriately diluted to yield a final suspension containing approximately 5.0×10^6 Colony Forming Units per ml (CFU/ml), when compared to the Mc Farland's standard control (BRAY W. E., Clinical Laboratory Methods, 5th Ed. C. V. MOSBY, St. Louis, Mo, 1957).
(§5) After further diluting (1:50), a […] volume of such fungal suspensions and an equal volume of the substance solutions were distributed into each well of a microtiter plate (96 wells, round bottom). Such a procedure eventually allowed for an "in vitro" antimycotic activity assay utilizing final fungal inocula of approximately 5.0×10^4 CFU/ml.

Candida albicans (Ca 2) = test: MIC for yeast and yeast-like strains; type: cell-based; conditions: 48 hours, 35° C., read-out: Minimal Inhibitory Concentration (MIC)
Procedure: as §1, §2, §3, §4, §5

[1] = test system: Candida tropicalis (5705); test: MIC for yeast and yeast-like strains; type: cell-based; conditions: 48 hours, 35° C., read-out: Minimal Inhibitory Concentration (MIC)
Procedure: as §1, §2, §3, §4, §5

[2] = test system: Cryptococcus neoformans (4711); test: MIC for yeast and yeast-like strains; type: cell-based; conditions: 48 hours, 35° C., read-out: Minimal Inhibitory Concentration (MIC)
Procedure: as §1, §2, §3, §4, §5

[3] = test system: Torulopsis candida (D.S.); test: MIC for yeast and yeast-like strains; type: cell-based; conditions: Suzukiozyma candida; 48 hours, 35° C.; read-out: Minimal Inhibitory Concentration (MIC)
Procedure: as §1, §2, §3, §4, §5

yeast-like fungi = test: MIC / MFC for yeast-like fungi, all strains; type: cell-based, Candida, Cryptococcus, Saccharomyces, Torulopsis; conditions: versus susceptible strains; read-out: Mean MIC values
Procedure: as §1, §2, §3, §4, §5
The minimal fungicidal concentration was evaluated by spot-transferring onto Petri dishes, containing Sabouraud agar, 0.01-ml volumes of all the samples showing no visible fungal growth.

[4] = test system: Aspergillus fumigatus (ATCC 28212); test: MIC for filamentous fungi; type: cell-based; conditions: ATCC28212, read-out: Minimal Inhibitory Concentration (MIC)
Source text: (§6) The following strains were used (the number of strains is in brackets): Aspergillus (5); Fusarium (1); Mucor (1); Penicillium (1).
(§7) The tested substances were: ST 712, ST 722, ST 982, ST 983, ST 1000, ST 1001, ST 1032, ST 1033, ST 1034, ST 1036, ST 1037, ST 1038, ST 1050, ST 1051, ST 1052, ST 1053. The assay medium was the same as the one used in the previous study. The conidia from 72-hour cultures in Sabouraud agar, collected by washing with Sabouraud medium and Tween 80 (one drop of Tween per 10 ml of medium), were utilized as inoculum (5.0×10^4 CFU/ml).
(§8) The assay was performed using the same procedure as described for yeast-like fungi.
(§9) Also the evaluation of MIC and MFC was as reported previously.

[5] = test system: Aspergillus niger (ATCC 16404); test: MIC for filamentous fungi; type: cell-based; conditions: ATCC16404, read-out: Minimal Inhibitory Concentration (MIC)
Source text: as §6, §7, §8, §9

Fusarium sp. (ISS 1) = test: MIC for filamentous fungi; type: cell-based; conditions: read-out: Minimal Inhibitory Concentration (MIC)
Source text: as §6, §7, §8, §9

Mucor mucedo (ATCC 7941) = test: MIC for filamentous fungi; type: cell-based; conditions: ATCC7941, read-out: Minimal Inhibitory Concentration (MIC)
Source text: as §6, §7, §8, §9

Penicillium sp. (1302) = test: MIC for filamentous fungi; type: cell-based; conditions: read-out: Minimal Inhibitory Concentration (MIC)
Source text: as §6, §7, §8, §9

filamentous fungi = test: MIC / MFC for filamentous fungi, all strains; type: cell-based, Aspergillus, Fusarium, Mucor, Penicillium; conditions: versus susceptible strains; read-out: Mean MIC values
Source text: as §6, §7, §8, §9

Candida albicans (562) = test: MIC for yeast and yeast-like strains; type: cell-based; conditions: 48 hours, 35° C., read-out: Minimal Inhibitory Concentration (MIC)
Procedure: as §1, §2, §3, §4, §5

Candida krusei (ISS 1) = test: MIC for yeast and yeast-like strains; type: cell-based; conditions: Pichia kudriavzevii; 48 hours, 35° C.; read-out: Minimal Inhibitory Concentration (MIC)
Procedure: as §1, §2, §3, §4, §5

[6] = test system: Saccharomyces cerevisiae (ATCC 7752); test: MIC for yeast and yeast-like strains; type: cell-based; conditions: ATCC7752, 48 hours, 35° C., read-out: Minimal Inhibitory Concentration (MIC)
Procedure: as §1, §2, §3, §4, §5

[7] = test system: Epidermophyton floccosum (IHEM 3495); test: MIC for dermatophytic fungi; type: cell-based; conditions: 35° C., 96 hours, read-out: Minimal Inhibitory Concentration (MIC)
Procedure: (§10) The following strains were used: Trichophyton menthagrophytes ATCC 9533, Trichophyton rubrum IHEM 4274, Microsporum canis IHEM 3522, Epydermophyton floccosum IHEM 3495. The tested substances were: ST 722, ST 1033, ST 1037, ST 1050, ST 1051, ST 1052,. ST 1053.
(§11) The assay was performed following the same procedure described for the yeasts, by using 7-day fungi cultures grown at 30° C. in Potato Dextrose agar, and harvested with Sabouraud broth and Tween 80 (0.5%).
(§12) After washing with Yeast Nitrogen Base, supplemented with asparagine and glucose (as carbon source), the fungal suspension was fragmented using a tissue grinder until the largest clumps or aggregates were undetectable within the grinder. This fungal suspension was then appropriately diluted in YNB to yield a concentration of 2.0×10^5 infective particles/ml (small mycelium fragments, micro-and macroaleuriospores).
(§13) Volumes of 100 μl both of the fungal suspensions and substance solutions, two-fold serially diluted in assay medium, were distributed into each well of a microtiter plate (96 wells, round bottom), which was incubated at 35° C. for 96 hours.

[8] = test system: Microsporum canis (IHEM 3522); test: MIC for dermatophytic fungi; type: cell-based; conditions: 35° C., 96 hours, read-out: Minimal Inhibitory Concentration (MIC)
Procedure: as §10, §11, §12, §13

[9] = test system: Trichophyton menthagrophites (ATCC 9533); test: MIC for dermatophytic fungi; type: cell-based; conditions: ATCC9533, 35° C., 96 hours, read-out: Minimal Inhibitory Concentration (MIC)
Procedure: as §10, §11, §12, §13

[10] = test system: Trichophyton rubrum (IHEM 4274); test: MIC for dermatophytic fungi; type: cell-based; conditions: 35° C., 96 hours, read-out: Minimal Inhibitory Concentration (MIC)
Procedure: as §10, §11, §12, §13

dermatophytic fungi = test: MIC / MFC for dermatophytic fungi, all strains; type: cell-based, Trichophyton, Microsporum, Epidermophyton; conditions: versus susceptible strains
Procedure: as §10, §11, §12, §13

Candida albicans (ISS 1) = test: MIC for yeast and yeast-like strains; type: cell-based; conditions: 48 hours, 35° C., read-out: Minimal Inhibitory Concentration (MIC)
Procedure: as §1, §2
(§14) This medium was buffered with 0.165 M 2-(N-morpholino) propane sulfonic acid (MOPS), a non-chelating buffer.
(§15) Antimicrob. Agents Cheroother. Aug. 34.8:1542-1545).
as §4, §5

Candida glabrata (ISS 1) = test: MIC for yeast and yeast-like strains; type: cell-based; conditions: Nakaseomyces glabratus; 48 hours, 35° C.; read-out: Minimal Inhibitory Concentration (MIC)
Procedure: as §1, §2, §14, §15, §4, §5

[11] = test system: Candida guilliermondii (ISS 1); test: MIC for yeast and yeast-like strains; type: cell-based; conditions: Meyerozyma guilliermondii; 48 hours, 35° C.; read-out: Minimal Inhibitory Concentration (MIC)
Procedure: as §1, §2, §14, §15, §4, §5

[12] = test system: Candida parapsilosis (ISS 1); test: MIC for yeast and yeast-like strains; type: cell-based; conditions: Lodderomyces parapsilosis; 48 hours, 35° C.; read-out: Minimal Inhibitory Concentration (MIC)
Procedure: as §1, §2, §14, §15, §4, §5

[13] = test system: Candida tropicalis (ISS 1); test: MIC for yeast and yeast-like strains; type: cell-based; conditions: 48 hours, 35° C., read-out: Minimal Inhibitory Concentration (MIC)
Procedure: as §1, §2, §14, §15, §4, §5

Measured: MIC

CCCCCCCCCCCCCCCC(=O)O[C@H](CC(=O)OCCCCCCCCCCC)C[N+](C)(C)C [ST 983]
> 100 µg/mL: Candida albicans (A 54) | Candida albicans (Ca 2) | [1] | [2] | [3] | yeast-like fungi | [4] | [5] | Fusarium sp. (ISS 1) | Mucor mucedo (ATCC 7941) | Penicillium sp. (1302) | filamentous fungi

CCCCCCCCCCCCCOC(=O)C[C@H](C[N+](C)(C)C)OC(=O)C(C)CCCC (stereo partly shown) [ST 1051]
6.87 µg/mL: filamentous fungi
25 µg/mL: [7]
1.56 µg/mL: Candida albicans (Ca 2)
3.12 µg/mL: Candida albicans (562) | Candida krusei (ISS 1) | [1] | [6] | [4] | Penicillium sp. (1302)
2.8 µg/mL: yeast-like fungi
14.1 µg/mL: dermatophytic fungi
6.25 µg/mL: [5] | Fusarium sp. (ISS 1) | Mucor mucedo (ATCC 7941) | [10]
12.5 µg/mL: [8] | [9]

CCCCCCCCCCCOC(=O)C[C@H](C[N+](C)(C)C)OC(=O)CCCCCCC [ST 1000]
1.56 µg/mL: Candida albicans (Ca 2) | Candida krusei (ISS 1) | [2]
3.76 µg/mL: filamentous fungi
3.12 µg/mL: Candida albicans (ISS 1) | [13] | [4] | [5] | Fusarium sp. (ISS 1) | Penicillium sp. (1302)
4.21 µg/mL: yeast-like fungi
6.25 µg/mL: Candida albicans (A 54) | [3] | Candida glabrata (ISS 1) | [11] | [12] | Mucor mucedo (ATCC 7941)
